Measured values as given in patent publication US6403554B2, “Polyunsaturated fatty acid derivatives and their use” (Ardenia Investments Ltd., priority 1998, dated 2002).

Assays:
[1] = test system: antibody-forming cells (AFC) in the spleen; assay: Humoral immune response: counting antibody-forming cells (AFC) in the spleen according to Cunningham, mice immunised with sheep erythrocytes; assay type: in vivo, C57B1/6 mice; settings: for Amount of antibody-forming cells per 10^6 spleen cells, M ± SEM (relative amount of AFC) / Amount of antibody-forming cells per spleen, M ± SEM (total AFC amount): 5-th day after injection, female mice; for Effect, % on AFC per 10^6 spleen cells / Effect, % on AFC per spleen: versus animals immunised only with sheep erythrocytes; for Dose at which immunostimulating effect in vivo is displayed (micelle form): compound alone
Description: (§1) 0.15 ml of compound 10 was administered intravenously to 6 mice females of CS7B1/6 line (weight 18-22 g) in doses of 45.5, 91 and 136.5 μg of compound 10 per capita for each testing group according to the dose. Simultaneously, a suspension of 5·10^7 sheep erythrocytes was injected intraperitoneally (0.2 ml per capita). Mice in the control group were injected intravenously with equal volume of saline. The effects of compound 10 on humoral immune response were analyzed both by counting the quantity of AFC in the spleen according to Cunningham (per 10^6 spleen cells and per spleen) and estimating the titers of hemagglutining antibodies in serum of the animals (Cunningham A. J., Nature, 1965, Vol.207, No 5001. P.1106-1107), while the titers of hemagglutinating antibodies were evaluated according to litterature (Evans J. et al., Cell, 1974; Vol 3., p.153-158, Feizi T., Menger E., Transfusion, 1970, Vol. 10, p.33-35,).
(§2) 0.15 ml of compound 11 was administered intravenously to 6 female mice of the C57B1/6 line (weight 18-22 g) in doses of 45.5, 91 and 136.5 μg of compound 11 per capita for each testing group according to the dose. Simultaneously, a suspension of 5·10^7 sheep erytrocytes was injected intraperitoneally (0.2 ml per capita). Mice in the control group were injected intravenously with an equal volume of saline. The effects of compound 11 on humoral immune response was analysed both by counting the quantity of AFC in the spleen according to Cunningham (per 10^6 spleen cells and per spleen) and estimating the titers of hemagglutining antibodies in serum of the animals.
as §2, with “12” for “11”, “erythrocytes” for “erytrocytes”, “analyzed” for “analysed”
as §2, with “compound 8” for “compound 11”, “sheep erythrocytes” for “sheep erytrocytes”, “Mice of” for “Mice in”, “response were analyzed” for “response was analysed”
as §2, with “compound 3” for “compound 11”, “Mice of” for “Mice in”, “with” for “with an”, “response were” for “response was”
(§3) 0.15 ml of compound 4 was administered intravenously to 6 female mice of the C57B1/6 line (weight 18-22 g) in a doses of 45.5, 91 and 136.5 μg of compound 4 per capita for each testing group according to the dose. Simultaneously, a suspension of 5·10^7 sheep erythrocytes was injected intraperitoneally (0.2 ml per capita). […]

[2] = test system: hemagglutinating antibodies in serum; assay: Humoral immune response: titers of hemagglutinating antibodies in serum; assay type: in vivo, C57B1/6 mice; settings: for Amount of hemagglutinins: serum, female mice; for Effect, % on hemagglutinins: versus control
Description: as §1, §2
as §2, with “12” for “11”, “erythrocytes” for “erytrocytes”, “analyzed” for “analysed”
as §2, with “compound 8” for “compound 11”, “sheep erythrocytes” for “sheep erytrocytes”, “Mice of” for “Mice in”, “response were analyzed” for “response was analysed”
as §2, with “compound 3” for “compound 11”, “Mice of” for “Mice in”, “with” for “with an”, “response were” for “response was”
as §3

Structure (SMILES)	Amount of antibody-forming cells per 10^6 spleen cells, M ± SEM (relative amount of AFC) ([1]; 45.5 μg/mouse i.v.)	Amount of antibody-forming cells per spleen, M ± SEM (total AFC amount) ([1]; 45.5 μg/mouse i.v.)	Effect, % on AFC per 10^6 spleen cells ([1]; 45.5 μg/mouse i.v.)	Effect, % on AFC per spleen ([1]; 45.5 μg/mouse i.v.)	Amount of antibody-forming cells per 10^6 spleen cells, M ± SEM (relative amount of AFC) ([1]; 91 μg/mouse i.v.)	Amount of antibody-forming cells per spleen, M ± SEM (total AFC amount) ([1]; 91 μg/mouse i.v.)	Amount of antibody-forming cells per 10^6 spleen cells, M ± SEM (relative amount of AFC) ([1]; 136.5 μg/mouse i.v.)	Amount of antibody-forming cells per spleen, M ± SEM (total AFC amount) ([1]; 136.5 μg/mouse i.v.)	Dose at which immunostimulating effect in vivo is displayed (micelle form) [1] [μg/mouse]	Amount of hemagglutinins ([2]; 45.5 μg/mouse i.v.) [Log2 T]	Effect, % on hemagglutinins ([2]; 45.5 μg/mouse i.v.)	Amount of hemagglutinins ([2]; 91 μg/mouse i.v.) [Log2 T]	Effect, % on hemagglutinins ([2]; 91 μg/mouse i.v.)	Amount of hemagglutinins ([2]; 136.5 μg/mouse i.v.) [Log2 T]	Effect, % on hemagglutinins ([2]; 136.5 μg/mouse i.v.)	Effect, % on AFC per 10^6 spleen cells ([1]; 91 μg/mouse i.v.)	Effect, % on AFC per spleen ([1]; 91 μg/mouse i.v.)	immunostimulating action ([1]; dose of 136.5 μg/mouse)	Immunogenic activity ([1]; doses of 45.5 and 91 μg/mouse)	other results
CC1=C(/C=C/C(C)=C/C=C/C(C)=C/C(=O)N[C@@H](Cc2ccc(OP(=O)(O)O)cc2)C(=O)O)C(C)(C)CCC1 (stereo in doubt) [Compound 4, N-(all-trans-retinoyl)-o-phospho-L-tyrosine]	405.0±47.9	55.0±6.7 × 10^3	−0.3 p >0.05%	−8.9 p > 0.05%	692.9±44.8	87.6±4.3 × 10^3	1354.3±99.9	138.9±10.0 × 10^3	91	6.0 ± 0.3	−3.2 p > 0.05%	6.5 ± 0.4	+4.8 p > 0.05%	7.5±0.2	–	–	–	–	–	Immunogenic activity ([1]; dose of 45.5 μg/mouse): no immunogenic activity; immunostimulating action ([1]; doses of 91 and 136.5 μg/mouse): high immunostimulating action
CC1=C(/C=C/C(C)=C/C=C/C(C)=C\C(=O)NCCOP(=O)(O)O)C(C)(C)CCC1 [Compound 1a, N-(13-cis-retinoyl)-o-phospho-2-aminoethanol]	–	–	–	–	–	–	–	–	91	7.6 ± 0.3	−1,3 p > 0.05%	7.6 ± 0.2	−1,3 p > 0.05%	8.2 ± 0.4	+6,5 p > 0.05%	–	–	–	–	–
CC/C=C\C/C=C\C/C=C\C/C=C\C/C=C\C/C=C\CCC(=O)N[C@@H](Cc1ccc(OP(=O)(O)O)cc1)C(=O)O [Compound 12, N-docosahexaenoyl-o-phospho-L-tyrosine]	263.8±23.6	31.8±2.8 × 10^3	−9.4 p >0.05%	−9.1 p >0.05%	307.8±30.9	40.2±2.7 × 10^3	682.6±33.3	69.6±6.0 × 10^3	–	7.4 ± 0.3	+2.8 p >0.05%	7.4 ± 0.3	+2.8 p > 0.05%	7.8 ± 0.3	+7.7 p > 0.05%	+5.7 p > 0.05%	+14.9 p > 0.05%	high immunostimulating action	no immunogenic activity	–
CC/C=C\C/C=C\C/C=C\CCCCCCCC(=O)NCCOP(=O)(O)O [Compound 17, N-linolenoyl-o-phospho-2-aminoethanol]	457.3±40.7	51.1±4.4 × 10^3	−3.0 p > 0.05%	−7.4 p > 0.05%	523.8±45.3	63.5±5.1 × 10^3	619.6±38.9	71.6±4.7 × 10^3	–	–	–	–	+2.6 p > 0.05%	–	+2.6 p > 0.05%	+11.1 p > 0.05%	+15.0 p > 0.05%	marked immunostimulating action	no immunogenic activity	–
CC/C=C\C/C=C\C/C=C\CCCCCCCC(=O)N[C@H](C(=O)O)[C@@H](C)OP(=O)(O)O [Compound 19, N-linolenoyl-o-phospho-L-threonine]	–	–	–	–	–	–	–	–	–	8.1 ± 0.3	–	8.3 ± 0.4	–	8.5 ± 0.3	–	–	–	–	–	–
CC/C=C\C/C=C\C/C=C\CCCCCCCC(=O)N[C@@H](Cc1ccc(OP(=O)(O)O)cc1)C(=O)O [Compound 20, N-linolenoyl-o-phospho-L-tyrosine]	512.8±46.2	46.4±4.8 × 10^3	−9.8 p > 0.05%	−7.4 p > 0.05%	634.5±51.7	55.7±5.6 × 10^3	845.1±43.1	75.8±7.7 × 10^3	–	7.4 ± 0.2	–	7.5 ± 0.3	+1.4 p > 0.05%	7.6 ± 0.4	+2.7 p > 0.05%	+11.6 p > 0.05%	+11.2 p > 0.05%	marked immunostimulating action	no immunogenic activity	–
